# Marks after values point to notes of the source that are not given here.
# What was measured:
# [1] = system: mongrel male mice; test: Passive cutaneous anaphylaxis reaction; type: in vivo; details: PCA, oral 3 days
# Description: Experiments were carried out on mongrel male mice with initial body mass 22-24 g. Each group included 10 animals. Sensibilization of animals was accomplished by intradermal injection of 20-30 µl of the serum of mice obtained from preliminaryly immunized animals comprising reagent antibodies against chicken ovalbumin (OVA). […] In 48 hours after sensibilzation an anaphylaxis-provoking OVA dose (1 mg and 0,2 ml Evans blue in 0.2 ml normal saline) were intravenously injected to mice. Passive cutaneous anaphylaxis reaction intensity (PCA) was determined in 30 minutes by the size (area) of a blue spot on the internal skin surface in the site of reagent anibodies' administration. Spot size was measured in two mutually perpendicular directions and the result was expressed in mm^2.
# [2] = system: mongrel guinea-pigs; test: Food anaphylaxis (active anaphylactic shock) in OVA-sensitized guinea pigs; details: oral 3 days before provoking anaphylaxis
# [3] = system: hydroxyl radical; test: Hydroxyl radical formation in the Fenton reagent (chemiluminescence); type: biochemical
# Description: Active oxygen forms (AOF) of different nature were generated in the following systems: • A. Hydroxyl radical - in the mixture of FeSO4 with H2O2 (the Fenton reagent) [Halliwell B. Superoxide-dependent formation of hydroxyl radicals in the presence of iron salts. […] Incubation medium comprised 5 mM KH2PO4 (pH 7.4); 5 mM FeSO4; 2 mM luminol. H2O2 at final concentration 5 mM was introduced into a cuvette through a dispencer following background luminescence recording of the reagents' mixture. 5 to 10 ml of the test compounds dissolved in water were at needed concentration introduced into a cuvette.
# CL flash recording duration after mixing ingredients, depended on a particular process kinetics. For each system, CL light sum (mV) was determined in the control samples without preparations (I-) and in samples comprising respective concentrations of preparations (I+). To estimate CL inhibition (activation) degree, the I+/I- ratio (in relative units) was found in the studied systems.
# When H2O2 was introduced into phosphate buffer comprising iron sulfate, CL flash occured which was caused by formation of predominantly hydroxyl radical in the reaction mixture.
# [4] = system: peritoneal mast cells; test: Histamine secretion by peritoneal mast cells of sensitized rats; type: in vivo, Wistar male rats; details: intraperitoneal 3 days; for Stimulated secretion, percent: OVA-stimulated
# Description: Effects on histamine release. […] 2 ml of cellular suspension containing 0.1-0.2 x 10^6 MC/ml were incubated in the presence of […] OVA. Histamine secretion was expressed in percent to its total level. Histamine amount in samples was determined using spectrofluorimetric method [Short P.A., Burkhalter A., Cohn V.N. A method for fluorimetric assay of histamine in tissues. J. Pharmacol. Exper.
# Animals of the control group were intraperitonelly injected normal saline (group 1). Each group included 10 animals.
# [5] = system: mongrel male mice; test: Delayed hypersensitivity induced by picryl chloride (TCB), local ointment; type: in vivo; details: mice, TCB
# Description: Effect study of the compounds on the delayed type hypersensitivity reaction induced in mice by 2.4.6-trichlorobenzol (TCB) was carried out according to the method of Tarayre et al. [Tarayre J.P., Barbara M., Aliaga M., Tisne-Versilles. Comparative actions of immunosuppressants, glucocorticoids and non-steroidal antiinflammatory drugs on various models of delayed hypersensitivity and on a non-immune inflammation in mice. Arzneim.-Forsch. Drug Res. (1990), Vol. 40, pip.1125-1131].
# Studies were conducted on mongrel male mice with initial body mass 30-35 g. Each group included 10 animals. Mice were sensitized with 0.1 ml 3% TCB solution in acetone application on a shaved abdominal area. In 7 days, the anaphylaxis-provoking TCB dose (0.025 ml of 3% solution) was applied on both surfaces of the right ear. In 30 minutes 0.05 ml of the test ointment were rubbed into the same surfaces. 24 hours after edema induction, mice were sacrified, ears were cut off and weighed. Allergic reaction intensity was assessed by change in weight in grams of the right ear (the test one) in relation to the left ear (the control ear).
# Allergic reaction inhibition expressed in percent was calculated according to the formula: 100-[(R-L(exper.))/(L):(R-L(control))/(L)x100](%) [formula] where R - the right ear weight, L - the left ear weight.
# The test compounds were applied on the ear in the form of 1% and 5% ointment the base of which were 10% methylcellulose solution and propylene glycol at 1:1 ratio.
# Groups of animals: • Group 1 - control, ointment base without active substance was applied on the ear of animals. • Group 2 - ointment base comprising 1% compound III was applied on the ear of animals. • Group 3 - ointment base comprising 1% compound XVII was applied on the ear of animals. • Group 4 - ointment base comprising 5% compound XLVIII was applied on the ear of animals.
# [6] = system: white mongrel male rats; test: Paw edema induced by Freund's complete adjuvant; type: in vivo; details: rats, FCA edema
# Description: Experiment was carried out on white mongrel male rats weghing 280-300 g. The model of paw edema induced by Freund's complete adjuvant (FCA), was reproduced according to the method of Ezamuzie and Umezurike [Ezamuzie Ch., Umezurike C.C. Effect of histamine H2-receptor antagonists on acute inflammatory of the rat paw oedema. J. Pharmacol. (1989), Vol. 41, pp. 261-265]. Paw volume measurement was done using a plethysmograph (Ugo Basile). Inhibition of inflammatory reaction expressed in percent, as calculated according to the formula: 100-[(R-L(exper.))/(L):(R-L(control))/(L)x100](%) [formula] where R - the right paw volume, L - the left paw volume.
# Each group included 10 animals.
# Group of animals: • Group 1 - control, animals were administered 0.5 ml of 1% starch solution. • Group 2 - animals were administered the compound XLVIII. • Group 3 - animals were administered the compound III. • Group 4 - animals were administered Naproxene.
# [7] = system: hepatic P-450 cytochrome system; test: Hexenal sleep duration in mice; type: in vivo; details: CBF1 mice; oral 3 days, 50 µg/kg; control 25.91 ± 1.57
# How it was run: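 Male mice (several inbred/hybrid lines, 18-20 g, n=10) and mongrel male guinea pigs (250-300 g, n=24) given compounds orally in drinking water for three days at 50 and 500 µg/kg. Hexenal given 24 h after last dose ([…]); sleep duration recorded in minutes.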
# [8] = system: Male guinea pigs; test: Antigen-induced bronchospasm in actively sensitized guinea pigs; type: in vivo; details: sensitized guinea pigs; 50 µg/kg per os, 72, 48 and 18 hours prior to bronchospasm induction
# Description: Antiasthmatic effect of the test compounds was studied using an antigen-induced bronchospasm model in actively sensitized guinea pigs according to the Andersson method [Andersson P. Antigen induced bronchial anaphylaxis in actively sensitized guinea pig. Allergy (1980), Vol. 35, pp. 65-71].
# Male guinea pigs were sensitized with intramuscular injection of 0.5 ml suspension comprising 20 micrograms ovalbumin (OVA, manufactured by the Sigma company [grade III]) and 100 mg Al(OH)3 per one animal. Anaphylaxis-provoking dose 150-200 µg/kg OVA in 0.1 ml normal saline was intravenously (v. jugularis) injected on day 26 after sensibilization. Bronchospasm induction and measuring external respiration parameters were carried out according to the method described in Yu-Hong L., Barnes P., Rogers D. Inhibition of neurogenic plasma exudation and bronchoconstriction by a K+ channel activator, BRL 38227, in guinea pig airways in vivo. Europ. J. Pharmacol. (?), Vol. 239, pp.257-259]. Measurement of respiration parameters was performed using a transducer (Ugo Basel, model 7020), connected with a cannula and a recorder (Millichrome), recording breathing amplitude. […] Efficacy of compounds was determined by change in bronchospasm value.
# Inthal was used as a reference drug that was administered to animals at a dose 5 µg/kg according to the same dosage regimen as the test substances were administered. The control group of animals received equivalent amount of normal saline.
# Groups of animals: group 1 - control; group 2 - animals given Inthal; group 3 - animals given oral compound XLIV; group IV - animals given oral compound III; group 5 - animals given intratracheal compound III; group 6 - animals given compound XLIX, group 7 - animals given compound XXXI, group 8 - animals given compound XLVI; group 9 - animals given compound VI, group 10 - animals given compound XLVIII.
# [9] = system: Strain Aichi of type A human influenza virus; type: in vivo; details: 50 µg/kg orally
# [10] = system: mongrel male mice; test: Average lifetime of mice in a closed volume (hypoxia); type: in vivo; details: without preliminary hypoxia, oral 2 hours before hypoxia, 300 mg/kg
# Description: (§1) The tests of determining average lifetime of animals in a closed volume and on the model of acute hypobaric hypoxia at the minimum atmospheric rarefaction (170-185 mm Hg) were used to study antihypoxic activity of the compunds of general formula (I).
# Mice were one by one placed into sealed glass jars and their lifetime was recorded.
# The experiment was carried out on 90 mongrel male mice having initial body mass 20 ± 0,5 g housed in cages by 10 animals and given a standard vivarium ration. Average lifetime of mice in closed vessels having volume 250 ml was preliminarily determined and it was 22 to 25 minutes. All the groups included 10 animals each.
# Experimental protocol: • a) - preliminary hypoxia for 12 minutes; • b) - first administration of a compound immediately following preliminary hypoxia; • c) - second administration of a compound in 24 hours after the first one, then daily for three days; • d) - recording lifetime of animals under hypoxic conditions in a sealed space 2 hours after the last administration of a compound.
# The test compounds were dissolved in distilled water and orally administered to animals for 5 days.
# Experimental groups: • Group 1 -(control) - without preliminary hipoxia with oral administration of distilled water for 5 days; • Groups 2 and 3 - administration of the compound XLIV using two doses 50 and 500 µg respectively; • Group 4 - oral administration of sodium oxybutyrate at a dose […] 2 hours before hypoxia; • Group 5 -(control)- with preliminary hypoxia for 12 minutes with subsequent administration of distilled water for 5 days; • Groups 6 and 7 - administration of the compound XLIV using two doses 50 and 500 µg respectively; • Groups 8 and 9 - administration of the compound III using two doses 50 and 500 µg respectively.
# [11] = system: mongrel mice; test: Acute hypobaric hypoxia model (AHBH); type: in vivo; details: single administration, 300,000 µg/kg
# Description: as §1
# Simulation of AHBH was done in a flow-through chamber at temperature 22°C. Experiments were carried out on mongrel mice with initial body mass 20 g at the minimum rarefaction 170-185 mm Hg, that corresponds to the altitude of 10500-11000 m. Lift rate was 35 m/second. Each group included 15 animals. Compounds were administered orally, lift on to altitude was performed 2 hours after the last administration.
# Groups of animals: • Group 1 - intact control -administration of normal saline four times. • Groups 2 and 3 - administration of the compound III at doses 50 and 500 µg/kg for 4 days. • Group 4 - single administration of sodium oxybutyrate at a dose […].
# [12] = intragastral four times 50 µg/kg
smiles,measurement,setting,value
"CCOC(=O)N1CCC(=C2c3ccc(Cl)cc3CCc3cccnc32)CC1 [Claritine, reference compound]",Percent of the reaction inhibition,[1]; 2 µg/kg,92.8%
same,"Reaction intensity, mm^2",[1]; 2 µg/kg,6.4 ± 2.3**^2 mm^2
same,Anaphylactic index,[2]; 1000 µg/kg,2.03
same,Lethality in percent,[2]; 1000 µg/kg,25.0%
same,Seizures in percent,[2]; 1000 µg/kg,53.3%
"N[C@H](CCC(=O)NCCc1c[nH]cn1)C(=O)O [compound XLV, γ -L-, D-glutamylhistamine]",relative effect: I+/I-,[3]; 1 µM,1.0
same,Chemiluminiscence intensity (mV) + σn-1,"[3]; 1 µM, control of the series as in the table",7666 ± 101 mV
same,relative effect: I+/I-,[3]; 0.01 mM,0.95
same,Chemiluminiscence intensity (mV) + σn-1,"[3]; 0.01 mM, control of the series as in the table",7443 ± 267 mV
same,relative effect: I+/I-,[3]; 0.1 mM,0.74
same,Chemiluminiscence intensity (mV) + σn-1,"[3]; 0.1 mM, control of the series as in the table",5800 ± 247 mV
same,relative effect: I+/I-,[3]; 1 mM,0.16
same,Chemiluminiscence intensity (mV) + σn-1,"[3]; 1 mM, control of the series 7839 ± 171, 1120 ± 163, 4974 ± 283 or 1332 ± 172",2195 ± 18 mV
same,Anaphylactic index,[2]; 50 µg/kg,0.90*
same,Lethality in percent,[2]; 50 µg/kg,6.7** percent
same,Seizures in percent,[2]; 50 µg/kg,15.5* percent
same,"Stimulated secretion, percent",[4]; 50 µg/kg,"2.32*^1,3%"
same,"Histamine level, µg/10^6 MC",[4]; 50 µg/kg,16.90*^1 µg/10^6 MC
same,"Spontaneous secretion, percent",[4]; 50 µg/kg,"9.63*^1,3%"
"CN(C)CCN(Cc1ccc(Cl)cc1)c1ccccn1 [Suprastine, reference compound]",Percent of the reaction inhibition,[1]; 10 µg/kg,7.6%
same,"Reaction intensity, mm^2",[1]; 10 µg/kg,82.1 ± 18.1 mm^2
same,"Stimulated secretion, percent",[4]; 1000 µg/kg,7.02%
same,"Histamine level, µg/10^6 MC",[4]; 1000 µg/kg,16.24*^1 µg/10^6 MC
same,"Spontaneous secretion, percent",[4]; 1000 µg/kg,5.62%
"N[C@@H](CCC(=O)NCCc1c[nH]c2ccccc12)C(=O)O [compound XLVIII, γ -L-glutamyltryptamine]",Reaction inhibition (%),[5]; 5% ointment,54%
same,weight increment,[5]; 5% ointment,3.7 ± 0.81 g
same,Weight of years (g) Right,"[5]; 5% ointment on right ear 30 minutes after challenge, 24 hours",17.9 ± 0.94 g
same,Weight of years (g) left,[5]; left (control) ear of animals given 5% ointment,14.2 ± 0.98 g
same,Inflammation inhibition (%),[6]; [12],19%
same,Volume increment,[6]; [12],0.65 ± 0.04
same,Volume of paws (conditional units) left,[6]; [12],1.30 ± 0.62 conditional units
same,Volume of paws (conditional units) Right,"[6]; intragastral four times 50 µg/kg 72, 48, 24 and 1 hour before FCA",1.95 ± 0.48 conditional units
same,Hexenal sleep duration (minutes),[7],16.27 ± 1.26** minutes
same,Bronchospasm (percent of the maximum value),[8],22.0 3.4* percent of the maximum value
same,"MLT, days","[9]; series with control - 1 (5.76), 3 days before and 10 days following infection",9.58*^1 days
same,Survival rate in percent,[9]; series with control - 1 (16.7),34.5*^1%
same,Protection degree in percent,[9]; series with control - 1,17.8%
"O=C(O)CCCO [sodium oxybutyrate, reference compound]",Lifetime (seconds),[10],"2103,9±100,5**^1 seconds"
same,Effect in percent,[11]; lifetime relative to control,"119 ± 4,4%"
same,Lifetime under hypoxic conditions (minutes),"[11]; mice, 170-185 mm Hg","364,3 ± 13,5 minutes"

# — patent EP2229935A1, “Peptide derivatives or pharmaceutically acceptable salts thereof, method for producing the same, use of said derivatives and pharmaceutical composition” (Nebolsin, Vladimir Evgenievich, priority 1997, dated 1999)
